Source: US20260015358A1, “BICYCLIC DERIVATIVES, COMPOSITIONS AND USES THEREOF” (Danatlas Pharmaceuticals Co., Ltd., priority 2023, published 2026)

What was measured:
[1] = molecular target: T1, WRN [UniPro: Q14191 (WRN_HUMAN), N500-C946] (Homo sapiens (Human), UniProt Q14191); test: WRN ATPase assay (ADP-Glo); format: biochemical; settings: WRN enzymatic activity assay
[2] = molecular target: T1, WRN [UniPro: Q14191 (WRN_HUMAN), N500-C946]; test: WRN unwinding assay (FORKF DNA, fluorescence); format: biochemical; settings: Table 14

T1 sequence (Q14191 500-946): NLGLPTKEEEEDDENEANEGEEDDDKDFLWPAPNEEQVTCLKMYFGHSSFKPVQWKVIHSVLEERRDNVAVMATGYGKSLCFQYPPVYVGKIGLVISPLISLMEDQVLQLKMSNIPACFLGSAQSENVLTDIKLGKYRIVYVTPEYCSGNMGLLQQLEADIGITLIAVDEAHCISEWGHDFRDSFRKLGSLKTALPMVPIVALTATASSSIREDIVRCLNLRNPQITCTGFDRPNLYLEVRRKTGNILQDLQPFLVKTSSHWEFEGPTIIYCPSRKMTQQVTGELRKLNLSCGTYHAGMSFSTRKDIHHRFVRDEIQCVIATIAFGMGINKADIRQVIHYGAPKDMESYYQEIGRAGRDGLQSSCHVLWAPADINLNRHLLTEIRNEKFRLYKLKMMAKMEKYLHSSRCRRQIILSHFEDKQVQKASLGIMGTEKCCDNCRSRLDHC

| Structure (SMILES) | IC50 [1] [nM] | IC50 [2] [nM] |
| --- | --- | --- |
| CCc1c(N2CCN(C(=O)c3nccn(C)c3=O)CC2)c(=O)n2nc(C3=CCOCC3)nc2n1CC(=O)Nc1ccc(C(F)(F)F)cc1Cl [Example 54, N-(2-Chloro-4-(trifluoromethyl)phenyl)-2-(2-(3,6-dihydro-2H-pyran-4-yl)-5-ethyl-6-(4-(4-methyl-3-oxo-3,4-dihydropyrazine-2-carbonyl)piperazin-1-yl)-7-oxo-[1,2,4]triazolo[1,5-a]pyrimidin-4(7H)-yl)acetamide] | 100 to 1000 | 100 to 1000 |
| CCc1c(N2CCN(C(=O)c3nn(C)c(=O)[nH]c3=O)CC2)c(=O)n2nc(C3=CCOCC3)nc2n1CC(=O)Nc1ccc(C(F)(F)F)cc1Cl [Example 58, N-(2-Chloro-4-(trifluoromethyl)phenyl)-2-(2-(3,6-dihydro-2H-pyran-4-yl)-5-ethyl-6-(4-(2-methyl-3,5-dioxo-2,3,4,5-tetrahydro-1,2,4-triazine-6-carbonyl)piperazin-1-yl)-7-oxo-[1,2,4]triazolo[1,5-a]pyrimidin-4(7H)-yl)acetamide] | < 100 | < 100 |
| CCc1c(N2CCN(C(=O)c3cn(C)c(=O)[nH]c3=O)CC2)c(=O)n2nc(C3=CCOCC3)nc2n1CC(=O)Nc1ccc(C(F)(F)F)cc1Cl [Example 59, N-(2-Chloro-4-(trifluoromethyl)phenyl)-2-(2-(3,6-dihydro-2H-pyran-4-yl)-5-ethyl-6-(4-(1-methyl-2,4-dioxo-1,2,3,4-tetrahydropyrimidine-5-carbonyl)piperazin-1-y1)-7-oxo-[1,2,4]triazolo[1,5-a]pyrimidin-4(7H)-yl)acetamide] | 100 to 1000 | < 100 |
| CCc1c(N2CCN(C(=O)c3cccc(C)c3O)CC2)c(=O)n2nc(C3=CCOCC3)nc2n1CC(=O)Nc1ccc(C(F)(F)F)cc1Cl [Example 60, N-(2-Chloro-4-(trifluoromethyl)phenyl)-2-(2-(3,6-dihydro-2H-pyran-4-yl)-5-ethyl-6-(4-(2-hydroxy-3-methylbenzoyl)piperazin-1-yl)-7-oxo-[1,2,4]triazolo[1,5-a]pyrimidin-4(7H)-yl)acetamide] | 100 to 1000 | 100 to 1000 |
| CCc1c(N2CCN(C(=O)c3c[nH][nH]c3=O)CC2)c(=O)n2nc(C3=CCOCC3)nc2n1CC(=O)Nc1ccc(C(F)(F)F)cc1Cl [Example 63, N-(2-Chloro-4-(trifluoromethyl)phenyl)-2-(2-(3,6-dihydro-2H-pyran-4-yl)-5-ethyl-7-oxo-6-(4-(3-oxo-2,3-dihydro-1H-pyrazole-4-carbonyl)piperazin-1-yl)-[1,2,4]triazolo[1,5-a]pyrimidin-4(7H)-yl)acetamide] | < 100 | < 100 |
| CCc1c(N2CCN(C(=O)c3cn(C)[nH]c3=O)CC2)c(=O)n2nc(C3=CCOCC3)nc2n1CC(=O)Nc1ccc(C(F)(F)F)cc1Cl [Example 64, N-(2-Chloro-4-(trifluoromethyl)phenyl)-2-(2-(3,6-dihydro-2H-pyran-4-yl)-5-ethyl-6-(4-(1-methyl-3-oxo-2,3-dihydro-1H-pyrazole-4-carbonyl)piperazin-1-yl)-7-oxo-[1,2,4]triazolo[1,5-a]pyrimidin-4(7H)-yl)acetamide] | 100 to 1000 | < 100 |
| CCc1c(N2CCN(C(=O)c3ccc[nH]c3=O)CC2)c(=O)n2nc(C3=CCOCC3)nc2n1CC(=O)Nc1ccc(C(F)(F)F)cc1Cl [Example 65, N-(2-Chloro-4-(trifluoromethyl)phenyl)-2-(2-(3,6-dihydro-2H-pyran-4-yl)-5-ethyl-7-oxo-6-(4-(2-oxo-1,2-dihydropyridine-3-carbonyl)piperazin-1-yl)-[1,2,4]triazolo[1,5-a]pyrimidin-4(7H)-yl)acetamide] | 100 to 1000 | 100 to 1000 |
| CCc1c(N2CCN(C(=O)C3CCC(=O)N3)CC2)c(=O)n2nc(C3=CCOCC3)nc2n1CC(=O)Nc1ccc(C(F)(F)F)cc1Cl (stereo not shown) [Example 66, N-(2-Chloro-4-(trifluoromethyl)phenyl)-2-(2-(3,6-dihydro-2H-pyran-4-yl)-5-ethyl-7-oxo-6-(4-(5-oxopyrrolidine-2-carbonyl)piperazin-1-yl)-[1,2,4]triazolo[1,5-a]pyrimidin-4(7H)-yl)acetamide] | > 1000 | > 1000 |
| CCc1c(N2CCN(C(=O)c3nccc4[nH]ccc34)CC2)c(=O)n2nc(C3=CCOCC3)nc2n1CC(=O)Nc1ccc(Cl)cc1C(F)(F)F [Example 67, 2-(6-(4-(1H-Pyrrolo[3,2-c]pyridine-4-carbonyl)piperazin-1-yl)-2-(3,6-dihydro-2H-pyran-4-yl)-5-ethyl-7-oxo-[1,2,4]triazolo[1,5-a]pyrimidin-4(7H)-yl)-N-(4-chloro-2-(trifluoromethyl)phenyl)acetamide] | < 100 | < 100 |

Second part, the compound after the results:

| IC50 [1] [nM] | IC50 [2] [nM] | Structure (SMILES) |
| --- | --- | --- |
| < 100 | 100 to 1000 | CCc1c(N2CCN(C(=O)c3c[nH]c(=O)[nH]c3=O)CC2)c(=O)n2nc(C3=CCOCC3)nc2n1CC(=O)Nc1ccc(C(F)(F)F)cc1Cl [Example 50, N-(2-Chloro-4-(trifluoromethyl)phenyl)-2-(2-(3,6-dihydro-2H-pyran-4-yl)-6-(4-(2,4-dioxo-1,2,3,4-tetrahydropyrimidine-5-carbonyl)piperazin-1-yl)-5-ethyl-7-oxo-[1,2,4]triazolo[1,5-a]pyrimidin-4(7H)-yl)acetamide] |
| < 100 | 100 to 1000 | CCOC(=O)c1cnc2oc(C(=O)N3CCN(c4c(CC)n(CC(=O)Nc5ccc(C(F)(F)F)cc5Cl)c5nc(C6=CCOCC6)nn5c4=O)CC3)cc2c1O [Example 53, Ethyl 2-(4-(4-(2-((2-chloro-4-(trifluoromethyl)phenyl)amino)-2-oxoethyl)-2-(3,6-dihydro-2H-pyran-4-yl)-5-ethyl-7-oxo-4,7-dihydro-[1,2,4]triazolo[1,5-a]pyrimidin-6-yl)piperazine-1-carbonyl)-4-hydroxyfuro[2,3-b]pyridine-5-carboxylate] |
| < 100 | < 100 | CCc1c(N2CCN(C(=O)c3cnc4sccc4c3O)CC2)c(=O)n2nc(C3=CCOCC3)nc2n1CC(=O)Nc1ccc(C(F)(F)F)cc1Cl [Example 55, N-(2-Chloro-4-(trifluoromethyl)phenyl)-2-(2-(3,6-dihydro-2H-pyran-4-yl)-5-ethyl-6-(4-(4-hydroxythieno[2,3-b]pyridine-5-carbonyl)piperazin-1-yl)-7-oxo-[1,2,4]triazolo[1,5-a]pyrimidin-4(7H)-yl)acetamide] |
| < 100 | < 100 | CCc1c(N2CCN(C(=O)c3nnc(C)[nH]c3=O)CC2)c(=O)n2nc(C3=CCOCC3)nc2n1CC(=O)Nc1ccc(C(F)(F)F)cc1Cl [Example 56, N-(2-Chloro-4-(trifluoromethyl)phenyl)-2-(2-(3,6-dihydro-2H-pyran-4-yl)-5-ethyl-6-(4-(3-methyl-5-oxo-4,5-dihydro-1,2,4-triazine-6-carbonyl)piperazin-1-yl)-7-oxo-[1,2,4]triazolo[1,5-a]pyrimidin-4(7H)-yl)acetamide] |
| < 100 | < 100 | CCc1c(N2CCN(C(=O)c3cnc4[nH]cnc4c3O)CC2)c(=O)n2nc(C3=CCOCC3)nc2n1CC(=O)Nc1ccc(C(F)(F)F)cc1Cl [Example 57, N-(2-Chloro-4-(trifluoromethyl)phenyl)-2-(2-(3,6-dihydro-2H-pyran-4-yl)-5-ethyl-6-(4-(7-hydroxy-3H-imidazo[4,5-b]pyridine-6-carbonyl)piperazin-1-yl)-7-oxo-[1,2,4]triazolo[1,5-a]pyrimidin-4(7H)-yl)acetamide] |
